We go through 1 substance from patent US20020022657A1, “Methods for modulating neuronal cell death” (priority 1998, published 2002).

The subject of this test is Aβ-induced toxicity. Put plainly: Aβ-induced toxicity, neuroprotection by Aβ-interferer (FIG. 6). Format: cell-based. Particulars: Aβ: laminin molar ratio of 1:10^−3; internal positive control.

With laminin, the Aβ-induced toxicity entry is “neuroprotective”.
